Values of other authors in patent US11058666B2, “Oral administration of melanin for protection against radiation” (priority 2011, dated 2021).

Settings: after 9 Gy delivered at 1 Gy/min, published data

In the case of `NCCCNCCSP(=O)(O)O` [amifostine], the survival is given as 60%.
